Several values for one entry are separate records, joined by “and”; a condition that tells them apart may be missing. Equal values may be shown once. Activity calls are given as the source filed them. How the calls were made is not given here.
Target: Peptidyl-prolyl cis-trans isomerase FKBP1A (Homo sapiens) (UniProt P62942)
Test: small-molecule binding to FKBP12 – biophysical, NMR detection (AID 608)
Conditions: purified FKBP12

Peptidyl-prolyl cis-trans isomerase FKBP1A (Homo sapiens), sequence (P62942 whole entry, looked up): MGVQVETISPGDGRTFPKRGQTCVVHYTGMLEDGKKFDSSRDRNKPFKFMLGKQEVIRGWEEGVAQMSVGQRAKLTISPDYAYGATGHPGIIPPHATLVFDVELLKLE

`COC(=O)N(c1ccccc1)P1(=S)OCCO1` was tested, and the Kd was > 4 mM (inactive).
In the case of `CC1=CC2C(CC1=O)C(C)=CCC2C(C)C` (centres undefined), the Kd is reported as > 4 mM (inactive).
`CC(=O)Nc1c(C)n(C)n(-c2ccccc2)c1=O` was tested, and the Kd was > 4 mM (inactive).
For `O=C(O)CN1CCN(C2CCCC2)CC1`, the Kd was > 4 mM (inactive).
With `CC(=O)Nc1ccc(-c2cn3ccsc3n2)cc1` the Kd was > 4 mM (inactive).
`CNC(=O)Cn1c(=O)n(C)c2ccccc21` was tested, and the Kd was > 4 mM (inactive).
`CC1=C(C(N)=O)C(c2ccccc2)NC(=O)N1` (centres undefined) was tested, and the Kd was > 4 mM (inactive).
In the case of `CC(=O)O[C@H]1CCC2(C)C3=C(CCC2C1(C)C)[C@]1(C)CCC(C(C)CCC=C(C)C)[C@@]1(C)CC3` (some centres undefined), the Kd is reported as > 4 mM (inactive).
For `C=CCCCCCCCCCCCc1ccco1`, the Kd was > 4 mM (inactive).
With `CCOC(=O)N1CCN(c2ncnc3c2cnn3C)CC1` the Kd was > 4 mM (inactive).
In the case of `Cc1sc2nc(C)n(NC(N)=O)c(=O)c2c1C`, the Kd is reported as > 4 mM (inactive).
`Nc1ccn(C2O[C@H](CO)[C@@H](O)[C@H]2O)c(=O)n1` (some centres undefined) was tested, and the Kd was > 4 mM (inactive).
In the case of `NC(=O)c1ccsc1NC(=O)c1ccco1`, the Kd is reported as > 4 mM (inactive).
`Cn1c(=O)n(C)c2cc(C(N)=O)ccc21` was tested, and the Kd was > 4 mM (inactive).
`COC(=O)C1CSCC1=O` (centres undefined) was tested, and the Kd was > 4 mM (inactive).
With `CC(C)c1ccc(SCC(=O)O)cc1` the Kd was > 4 mM (inactive).
In the case of `O=C1NC(=S)N/C1=C\c1ccccc1`, the Kd is reported as > 4 mM (inactive).
`O=C1N=C(N2CCOCC2)S/C1=C\c1cccnc1` was tested, and the Kd was > 4 mM (inactive).
`O=C(NCc1ccccn1)c1ccc(Br)s1` was tested, and the Kd was > 4 mM (inactive).
For `N#Cc1cnn2c(C(F)(F)F)cc(C(F)(F)F)nc12`, the Kd was > 4 mM (inactive).
For `CN1CCN(c2cc(=O)n(C)c(=O)[nH]2)CC1`, the Kd was > 4 mM (inactive).
In the case of `C=C[C@@H](C1=CC(=O)C(OC)=C(OC)C1=O)c1ccccc1`, the Kd is reported as > 4 mM (inactive).
For `COc1ccc2c(c1)OC/C(=C/c1ccc(O)c(O)c1)C2=O`, the Kd was > 4 mM (inactive).
In the case of `NC(=O)/C=C/C(=O)Nc1ccccc1`, the Kd is reported as > 4 mM (inactive).
In the case of `O=C(O)c1ccc2snnc2c1`, the Kd is reported as > 4 mM (inactive).
In the case of `c1cc2n(c1)CCNC2c1ccncc1` (centres undefined), the Kd is reported as > 4 mM (inactive).
`CC1(O)CC2C(CC1O)C2(C)C` (centres undefined) was tested, and the Kd was > 4 mM (inactive).
In the case of `COc1cc(OC)c2c(OC)c(-c3ccc4c(c3)OCO4)c(=O)oc2c1`, the Kd is reported as > 4 mM (inactive).
In the case of `Cc1nn(CC(=O)Nc2ccccn2)c(=O)c2ccccc12`, the Kd is reported as > 4 mM (inactive).
In the case of `COc1cc2cc[n+]3cc4c(OC)c(OC)ccc4cc3c2cc1OC`, the Kd is reported as > 4 mM (inactive).
`CC(=O)O[C@@H]1CC2C(C)(C)C(=O)C=C[C@]2(C)C2CC[C@@]3(C)[C@H](c4ccoc4)OC(=O)[C@H]4O[C@]43[C@@]21C` (some centres undefined) was tested, and the Kd was > 4 mM (inactive).
With `c1ccc(-c2nnc3sc(-c4ccncc4)nn23)cc1` the Kd was > 4 mM (inactive).
`CC(=O)c1cc(C)ccc1OC(=O)c1cccnc1` was tested, and the Kd was > 4 mM (inactive).
With `c1cncc(Nc2nc(-c3ccncc3)cs2)c1` the Kd was > 4 mM (inactive).
For `O=C(Nc1nncs1)c1c(F)c(F)c(F)c(F)c1F`, the Kd was > 4 mM (inactive).
For `CC1=C2[C@H]3OC(=O)[C@@H](C)[C@@H]3CC[C@@]2(C)C=CC1=O`, the Kd was > 4 mM (inactive).
For `O=C(Nn1cnnc1)c1csc2c1CCCC2`, the Kd was > 4 mM (inactive).
For `Cc1ccnc(NS(=O)(=O)c2cccs2)c1`, the Kd was > 4 mM (inactive).
In the case of `Cc1ccnc(NS(=O)(=O)c2ccccc2)n1`, the Kd is reported as > 4 mM (inactive).
For `O=C(O)c1cn(-c2ccccc2)nc1-c1cccnc1`, the Kd was > 4 mM (inactive).
`NC(=O)C1CCN(C(=O)CN2CCc3ccccc32)CC1` was tested, and the Kd was > 4 mM (inactive).
`Cc1nc2ccccc2c(=O)n1/N=C/c1ccco1` was tested, and the Kd was > 4 mM (inactive).
`O=C(O)/C=C/c1ccc(O)c(O)c1` was tested, and the Kd was > 4 mM (inactive).
For `CC(=O)O[C@H]1C[C@@H](OC(C)=O)C(C)(C)C2C[C@@H](OC(C)=O)[C@]3(C)C(CC[C@@]4(C)[C@H](c5ccoc5)C(=O)[C@H]5O[C@]543)[C@]21C` (some centres undefined), the Kd was > 4 mM (inactive).
`CC1(C)CC[C@]2(C)CC[C@]3(C)C(=CCC4[C@@]5(C)CC[C@H](O)C(C)(C)C5CC[C@]43C)C2C1` (some centres undefined) was tested, and the Kd was > 4 mM (inactive).
With `Cc1nc2cc(NC(=O)Nc3nccs3)ccc2n1C` the Kd was > 4 mM (inactive).
For `CCc1noc(C)c1C(=O)Nc1ncc(C)s1`, the Kd was > 4 mM (inactive).
With `O=C(c1cccnc1Cl)N1CCOCC1` the Kd was > 4 mM (inactive).
In the case of `Cc1nnc(-n2cnc3ccccc32)c2ccccc12`, the Kd is reported as > 4 mM (inactive).
`COc1cc(C(=S)N2CCC(C(N)=O)CC2)ccc1O` was tested, and the Kd was > 4 mM (inactive).
`N=Nc1c(O)[nH]c2ccccc12` was tested, and the Kd was > 4 mM (inactive).
In the case of `c1ccc(CCc2nc(-c3ccccn3)no2)cc1`, the Kd is reported as > 4 mM (inactive).
For `CN(C)c1ccc(N2C(=O)CCC2=O)cc1`, the Kd was > 4 mM (inactive).
For `Cc1cc(C(=O)NC(C)c2ccncc2)cs1` (centres undefined), the Kd was > 4 mM (inactive).
In the case of `O=C(c1ccco1)N1CCn2c1nc1ccccc12`, the Kd is reported as > 4 mM (inactive).
`COc1ccc2c(Cl)c(C(=O)N3CC(C)OC(C)C3)sc2c1` (centres undefined) was tested, and the Kd was > 13.6 mM (inactive).
`O=C(c1ccco1)N1CCCN(C(=O)c2ccco2)CC1` was tested, and the Kd was 0.072 mM and 0.277 mM.
With `OCC(O)C(O)C(O)CO` (centres undefined) the Kd was > 4 mM (inactive).
For `c1ccn(Cc2ccncc2)c1`, the Kd was > 4 mM (inactive).

Source: PubChem BioAssay AID608 (Sanford-Burnham Center for Chemical Genomics, 2007)
